The record followed here is patent US5726162A (priority 1996, dated 1998).

The test system of one experiment is fungal inoculum. The experiment can be described thus: organism not typed. To be noted: read-out: % growth inhibition. In kind it is cell-based.
Experiment [1] deals with Magnaporthe grisea (Pyricularia oryzae). The experiment can be described thus: whole plant or invertebrate. In kind it is in vivo, Magnaporthe grisea (Pyricularia oryzae) on M201 rice plants. To be noted: Pyricularia oryzae, 144 h, read-out: % Control RB.
For another experiment, the system named is fungal mycelium. Kind of experiment: organism not typed. Particulars: read-out: % growth inhibition. In kind it is cell-based.

Structures are written as SMILES.

As usually defined, the inhibition is the change of the read-out against control, counted positive when it falls. Regarding `COC(C)C#CCN1N=C(c2ccc(Cl)cc2)CCC1=O` (stereo not drawn) [Compound 48, 6-(4-chlorophenyl)-2-(4'methoxy-2'-pentynyl)-4,5-dihydropyridazinone], in the experiment with fungal inoculum, the inhibition at 50 ppm stood at 100%. In experiment [1], the pest or weed control at 200 ppm was found to be 90%.

As for `CC#CCn1nc(-c2ccc(Cl)c(C)c2)ccc1=O` [Compound 114], the inhibition at 5 ppm in the experiment on fungal inoculum was 100%. The pest or weed control at 200 ppm in experiment [1] worked out at 50%.

Regarding `CCC#CCn1nc(-c2ccc(OCC)cc2)ccc1=O` [Compound 117], the inhibition at 200 ppm in the experiment with fungal inoculum is 34.7%. In addition, the pest or weed control at 200 ppm in experiment [1] amounted to 0%.

Consider `O=C1CCC(c2ccc(Cl)cc2)=NN1CC#CCCO` [Compound 50], for which the inhibition at 50 ppm in the experiment with fungal inoculum came to 100%. Also, the pest or weed control at 200 ppm in experiment [1] turned out to be 0%.

As for `CCC#CCn1nc(-c2cc3ccccc3s2)ccc1=O` [Compound 147], the inhibition at 50 ppm with fungal inoculum came to 98.1%.

In the case of `CC#CCN1N=C(c2ccc3ccc4cccc5ccc2c3c45)CCC1=O` [Compound 141], the inhibition at 100 ppm with fungal inoculum turned out to be 23.9%. The pest or weed control at 200 ppm in experiment [1] stood at 0%.

On to `CCC#CCN1N=C(c2ccc(SC)cc2)CCC1=O` [Compound 61], for which the inhibition at 10 ppm with fungal inoculum is 95.3%. Further, in experiment [1], the pest or weed control at 200 ppm is 90%.

In the case of `CCCC#CCN1N=C(c2ccc(Cl)cc2)CCC1=O` [Compound 29], in the experiment on fungal inoculum, the inhibition at 1 ppm amounted to 86.1%. Moreover, the pest or weed control at 200 ppm in experiment [1] came out at 95%.

Turning to `O=C1CCC(c2ccc(Cl)cc2)=NN1CC#CCCl` [Compound 72, 6-(4-chlorophenyl)-2-(4'-chloro-2'-butynyl)-4,5-dihydropyridazinone], the inhibition at 0.5 ppm with fungal inoculum was determined as 96.2%. The pest or weed control at 200 ppm in experiment [1] worked out at 90%.

Take `O=C1CCC(c2ccc(Cl)cc2)=NN1CC#CI` [Compound 60]: the inhibition at 10 ppm in the experiment with fungal inoculum is 100%. For the same compound, the pest or weed control at 200 ppm in experiment [1] was found to be 50%.

Regarding `O=C1CCC(c2ccc(Cl)cc2)=NN1CC#CCC1CCCCC1` [Compound 95], the inhibition at 10 ppm in the experiment on fungal mycelium came to 22.2%. Also, the pest or weed control at 200 ppm in experiment [1] was 0%.

`CCC#CCN1N=C(c2ccc(C(C)(C)C)cc2)CCC1=O` [Compound 57]: the inhibition at 100 ppm in the experiment with fungal inoculum was found to be 95.7%. For the same compound, in experiment [1], the pest or weed control at 200 ppm stood at 0%.

Consider `CCC#CCN1N=C(c2ccc(Cl)cc2)C(F)(F)C(F)(F)C1=O` [Compound 106], for which the inhibition at 50 ppm in the experiment with fungal mycelium was found to be 81%. In experiment [1], the pest or weed control at 200 ppm amounted to 0%.

Consider `CCC#CCn1nc(-c2sc3ccccc3c2Br)ccc1=O` [Compound 148], for which the inhibition at 10 ppm in the experiment on fungal inoculum was 0%. In addition, the pest or weed control at 200 ppm in experiment [1] was determined as 0%.

As to `CCC#CCN1N=C2c3ccc(Cl)cc3CC2CC1=O` (stereo not drawn) [Compound 143, 7-chloro-2,4,4a,5-tetrahydro-2-(2-pentyn-1-yl)-indeno[1,2-c]-pyridazin-3-one], in the experiment on fungal mycelium, the inhibition at 1 ppm turned out to be 100%. Besides, the pest or weed control at 200 ppm in experiment [1] worked out at 99%.

On to `CCC#CCN1N=C(c2ccc(OCC)cc2)CCC1=O` [Compound 66], for which the inhibition at 25 ppm in the experiment with fungal mycelium came out at 100%. The pest or weed control at 200 ppm in experiment [1] came to 0%.

Take `CCC#CCn1nc(-c2ccc(C(C)(C)C)cc2)ccc1=O` [Compound 111]: in the experiment on fungal inoculum, the inhibition at 25 ppm was 100%. Moreover, in experiment [1], the pest or weed control at 200 ppm amounted to 0%.

On to `CC#CCN1N=C(c2ccc(Cl)c(F)c2)CCC1=O` [Compound 83], for which the inhibition at 0.5 ppm in the experiment on fungal mycelium came to 81.3%. In experiment [1], the pest or weed control at 200 ppm is 90%.

Regarding `CCC#CCN1N=C(c2ccc(C(F)(F)F)cc2)CCC1=O` [Compound 41], the inhibition at 10 ppm in the experiment on fungal inoculum was 89.2%. The pest or weed control at 200 ppm in experiment [1] amounted to 0%.

In the case of `C=C=CN1N=C(c2ccc(Cl)cc2)CCC1=O` [Compound 52], the inhibition at 50 ppm with fungal inoculum is 93.7%. Further, the pest or weed control at 200 ppm in experiment [1] is 0%.

Regarding `CC#CCN1N=C(c2c(OC)ccc3ccc(OC)cc23)CCC1=O` [Compound 138], the inhibition at 100 ppm in the experiment with fungal inoculum is 64.6%. Also, the pest or weed control at 200 ppm in experiment [1] is 0%.

As for `CC#CCN1N=C(c2ccccc2)CCCC1=O` [Compound 139, 2-(2-butynyl)-7-phenyl-1,2-diazapin-3-one], the inhibition at 100 ppm in the experiment on fungal inoculum came out at 65%. Besides, the pest or weed control at 200 ppm in experiment [1] was determined as 0%.

In the case of `COC(=O)C#CCN1N=C(c2ccc(Cl)cc2)CCC1=O` [Compound 55], in the experiment on fungal inoculum, the inhibition at 50 ppm came out at 100%. Further, in experiment [1], the pest or weed control at 200 ppm was determined as 0%.

Take `CCC#CCN1N=C(c2ccc(Cl)c(C)c2)CCC1=O` [Compound 62]: the inhibition at 1 ppm in the experiment on fungal inoculum came to 100%. Besides, the pest or weed control at 200 ppm in experiment [1] amounted to 99%.

Turning to `N#CCN1N=C(c2ccc(Cl)cc2)CCC1=O` [Compound 35], the inhibition at 50 ppm with fungal inoculum came to 85%. Also, in experiment [1], the pest or weed control at 200 ppm came out at 75%.

As for `CC#CCN1N=C(c2ccccc2)CC(c2ccccc2)C1=O` (stereo not drawn) [Compound 30], in the experiment on fungal inoculum, the inhibition at 50 ppm is 41.2%.

Take `CCOC(C#CCN1N=C(c2ccc(Cl)cc2)CCC1=O)OCC` [Compound 87, 6-(4-chlorophenyl)-2-(4'-aldehydo-2'-butynyl)-4,5-dihydropyridazinone, diethyl acetal]: in the experiment on fungal mycelium, the inhibition at 100 ppm was found to be 100%. Further, the pest or weed control at 200 ppm in experiment [1] worked out at 75%.

`CCC#CCN1N=C(c2cc3ccccc3s2)CCC1=O` [Compound 144]: the inhibition at 1 ppm in the experiment on fungal inoculum amounted to 100%.

Take `CC#CCN1N=C(c2ccncc2)CCC1=O` [Compound 133]: the inhibition at 200 ppm with fungal mycelium turned out to be 67.4%. Also, the pest or weed control at 200 ppm in experiment [1] was 0%.

As for `CC#CCN1N=C(c2ccc(Br)cc2)CCC1=O` [Compound 31], the inhibition at 5 ppm in the experiment on fungal inoculum came to 92.4%. The pest or weed control at 200 ppm in experiment [1] amounted to 90%.

Turning to `CC#CCn1nc(-c2ccc(Cl)cc2C)ccc1=O` [Compound 116], the inhibition at 50 ppm in the experiment with fungal inoculum was found to be 82.5%. Moreover, the pest or weed control at 200 ppm in experiment [1] stood at 0%.

Regarding `CCC#CCN1N=C(c2cc(Cl)c(C)c(Cl)c2)CCC1=O` [Compound 44], in the experiment with fungal inoculum, the inhibition at 5 ppm worked out at 87%.

Regarding `CCC#CCn1nc(-c2ccc(Cl)c(C)c2)ccc1=O` [Compound 113], the inhibition at 10 ppm in the experiment on fungal inoculum amounted to 64.3%. The pest or weed control at 200 ppm in experiment [1] was 95%.

On to `CCC#CCn1cc(-c2ccc(Cl)cc2)cc(C#N)c1=O` [Compound 146, 5-(4-chlorophenyl)-3-cyano-1-(2-pentyn-1-yl)-2-pyridinone], for which the inhibition at 10 ppm in the experiment with fungal inoculum came to 5%. In experiment [1], the pest or weed control at 200 ppm came to 0%.

Take `O=C1CCC(c2ccc(Cl)cc2)=NN1CC=C(Br)CBr` [Compound 75]: the inhibition at 100 ppm in the experiment with fungal mycelium is 100%. For the same compound, the pest or weed control at 200 ppm in experiment [1] stood at 0%.

`CCC#CCN1N=C(c2ccc([N+](=O)[O-])cc2)CCC1=O` [Compound 65]: the inhibition at 50 ppm with fungal mycelium amounted to 84%. Moreover, in experiment [1], the pest or weed control at 200 ppm is 0%.

As to `O=CC#CCN1N=C(c2ccc(Cl)cc2)CCC1=O` [Compound 88, 6-(4-chlorophenyl)-2-(4-aldehydo-2'-butynyl)-4,5-dihydropyridazinone], in the experiment with fungal mycelium, the inhibition at 100 ppm was determined as 80%. In addition, the pest or weed control at 200 ppm in experiment [1] stood at 0%.

As to `O=C1CCC(c2ccc(Cl)cc2)=NN1CC#CC1CCCCC1` [Compound 94], the inhibition at 10 ppm in the experiment on fungal mycelium was 22.2%. In experiment [1], the pest or weed control at 200 ppm was 0%.

For `CC#CCN1N=C(c2ccc(C(F)(F)F)cc2)CCC1=O` [Compound 42], the inhibition at 10 ppm with fungal inoculum was 91.7%.

Regarding `CCC#CCN1N=C(c2ccc(Cl)cc2)CC=C1OC` [Compound 158, 6-(4-chlorophenyl)-3-methoxy-2-(2'-pentyn-1-yl)-2,5-dihydropyridazine], the inhibition at 10 ppm in the experiment with fungal mycelium stood at 100%. In addition, in experiment [1], the pest or weed control at 200 ppm is 0%.

In the case of `O=C1CCC(c2ccc(Cl)cc2)=NN1CC#Cc1ccc(Cl)cc1` [Compound 68], the inhibition at 5 ppm in the experiment with fungal inoculum came out at 10.4%.

In the case of `CCC#CCN1N=C(c2ccc(Br)cc2)CCC1=O` [Compound 91], in the experiment on fungal mycelium, the inhibition at 1 ppm is 100%. The pest or weed control at 200 ppm in experiment [1] came to 90%.

In the case of `C[Si](C)(C)C#CCN1N=C(c2ccc(Cl)cc2)CCC1=O` [Compound 86], the inhibition at 100 ppm in the experiment with fungal mycelium amounted to 80%. The pest or weed control at 200 ppm in experiment [1] amounted to 0%.

`CC#CCN1N=C(C=Cc2ccc(Cl)cc2)CCC1=O` [Compound 24]: in the experiment with fungal mycelium, the inhibition at 200 ppm amounted to 6.1%. Further, the pest or weed control at 200 ppm in experiment [1] was 0%.

Consider `C#CC#CCn1nc(-c2ccc(Cl)cc2)ccc1=O` [Compound 125], for which, in the experiment on fungal mycelium, the inhibition at 0.5 ppm came to 89.5%. In addition, the pest or weed control at 200 ppm in experiment [1] was 0%.

Turning to `CC#CCN1N=C(c2ccc(Cl)c(C)c2)CCC1=O` [Compound 63], the inhibition at 200 ppm in the experiment on fungal mycelium worked out at 100%. Further, the pest or weed control at 200 ppm in experiment [1] was determined as 0%.

For `CCC#CCN1N=C(c2ccc(OC)cc2)CCC1=O` [Compound 81], the inhibition at 2.5 ppm with fungal mycelium was 95.8%. Moreover, in experiment [1], the pest or weed control at 200 ppm turned out to be 95%.

For `O=C1CCC(c2ccc(Cl)cc2)=NN1CC=CBr` [Compound 69], the inhibition at 50 ppm in the experiment on fungal inoculum is 100%.

As to `CCC#CCn1nc(-c2ccc(Cl)cc2)c(F)c(F)c1=O` [Compound 122, 6-(4-chlorophenyl)-4,5-difluoro-2-(2'-pentynyl)-pyridazinone], the inhibition at 100 ppm in the experiment on fungal mycelium was found to be 84.6%. Moreover, the pest or weed control at 200 ppm in experiment [1] is 0%.

On to `O=C(O)C#CCN1N=C(c2ccc(Cl)cc2)CCC1=O` [Compound 54, 6-(4-chlorophenyl)-2-(3'-carboxy-2'-propynyl)-4,5-dihydropyridazinone], for which, in the experiment on fungal mycelium, the inhibition at 200 ppm amounted to 71.4%. In addition, in experiment [1], the pest or weed control at 200 ppm was 0%.

Turning to `CCC#CCSc1ccc(-c2ccc(Cl)cc2)nn1` [Compound 152, 6-(4-chlorophenyl)-3-(2-pentyn-1-thio)-pyridazine], in the experiment on fungal mycelium, the inhibition at 10 ppm came out at 18.2%. In experiment [1], the pest or weed control at 200 ppm came to 0%.

Regarding `CCC#CCN1N=C(c2ccc(F)cc2)CCC1=O` [Compound 82], the inhibition at 2.5 ppm in the experiment with fungal mycelium worked out at 100%. For the same compound, the pest or weed control at 200 ppm in experiment [1] was found to be 0%.

In the case of `CCC#CCN1N=C(c2ccc(Cl)c(F)c2)CCC1=O` [Compound 74, 6-(4-chloro-3-fluorophenyl)-2-(2'-pentynyl)-4,5-dihydropyridazinone], the inhibition at 1 ppm with fungal mycelium amounted to 100%. For the same compound, the pest or weed control at 200 ppm in experiment [1] was determined as 75%.

Regarding `O=C1CCC(c2ccc(Cl)cc2)=NN1CC#Cc1cccs1` [Compound 67], in the experiment on fungal inoculum, the inhibition at 5 ppm was found to be 83.6%.

In the case of `CCCCCCCC#CCN1N=C(c2ccc(Cl)cc2)CCC1=O` [Compound 85], in the experiment with fungal mycelium, the inhibition at 100 ppm is 100%. In addition, in experiment [1], the pest or weed control at 200 ppm was 0%.
